Results reported in patent US20220356163A1, “SMALL MOLECULE INHIBITORS OF Id PROTEINS” (MEMORIAL SLOAN KETTERING CANCER CENTER, priority 2019, published 2022).

Legend:
Id1 [1] = biological target: T1, Id1 (Mus musculus, UniProt P20067); assay: Electrophoretic mobility shift assay (EMSA): ability of Id1 to antagonize E47 binding to DNA; format: biochemical; conditions: comparison between compounds
T1 construct: in the presence or absence of purified full-length Id1; made in house; host or cells: bacteria (Id1: Rosetta 2 (DE3))
T1 sequence (P20067 1-148 isoform P20067-2): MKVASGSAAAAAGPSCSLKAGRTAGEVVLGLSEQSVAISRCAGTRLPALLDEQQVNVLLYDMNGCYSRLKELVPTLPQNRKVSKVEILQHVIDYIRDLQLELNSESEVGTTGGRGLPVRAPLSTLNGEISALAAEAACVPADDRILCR
Procedure: Electrophoretic mobility shift assays. To test the activity of compounds identified in the in silico screen, full-length E47 was purified from bacteria and mixed with a P^32 labeled E-box sequence derived from the muscle creatine kinase (MCK) enhancer, BSA, DTT, poly dI-dC, salmon sperm, and HeLa nuclear extract, in the presence or absence of purified full-length Id1. Increasing concentrations of the various test compounds dissolved in DMSO or DMSO alone were added to the reaction mixes for 30 minutes, resolved on a 5% non-denaturing polyacrylamide gel, and autoradiographed. Electrophoretic mobility shift assays (EMSAs) were carried out on whole cell lysates from AGX51-treated cells and the EMSA was performed as described previously (Tournay and Benezra, Mol Cell Biol, 16: 2418-30 (1996)).
Pesce and Benezra, Mol. Cell. Biol., 13, 7874-7880 (1993). An in silico screen of 2,234,000 compounds for crevice binding was performed, yielding 3,000 hits that were pared for drug-like properties. 364 candidates emerged and were tested for their capacity to inhibit the ability of Id1 to antagonize E47 binding to DNA by EMSAs as previously described (Benezra, 1994). […] This anti-Id1 activity was most likely due to the perturbation of the Id1-E47 interaction but other explanations, such as the binding of an Id1-E47 complex to DNA in the presence of compound, are possible. […]

E47 = E47 (Homo sapiens, UniProt P15923); assay: Circular dichroism (CD) of E47; format: binding; conditions: 0, 10, 20 and 50 μM
Sequence of E47 (P15923 1-651 isoform P15923-2): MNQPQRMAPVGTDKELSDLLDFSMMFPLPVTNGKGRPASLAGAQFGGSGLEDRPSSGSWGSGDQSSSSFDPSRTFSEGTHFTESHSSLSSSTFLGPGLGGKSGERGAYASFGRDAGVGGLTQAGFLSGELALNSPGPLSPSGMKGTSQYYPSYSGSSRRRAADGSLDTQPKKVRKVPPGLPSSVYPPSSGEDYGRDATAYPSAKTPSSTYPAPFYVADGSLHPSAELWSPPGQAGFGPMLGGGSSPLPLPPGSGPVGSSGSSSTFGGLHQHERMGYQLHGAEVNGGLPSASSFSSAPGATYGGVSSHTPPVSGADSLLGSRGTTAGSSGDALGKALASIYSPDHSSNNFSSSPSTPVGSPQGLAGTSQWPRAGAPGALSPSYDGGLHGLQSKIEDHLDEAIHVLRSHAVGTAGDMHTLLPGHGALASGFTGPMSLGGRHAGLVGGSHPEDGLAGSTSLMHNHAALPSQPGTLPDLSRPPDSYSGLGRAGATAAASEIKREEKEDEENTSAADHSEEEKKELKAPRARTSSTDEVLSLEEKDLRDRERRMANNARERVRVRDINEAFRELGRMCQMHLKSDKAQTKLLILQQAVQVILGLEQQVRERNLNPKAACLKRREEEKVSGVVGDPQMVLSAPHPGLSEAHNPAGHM
Procedure: Circular dichroism. Far UV Circular dichroism (CD) measurements were done on a Jasco J-1500 spectropolarimeter at room temperature using a 0.1 cm cell and a 0.1 mg/mL protein solution in the absence of presence of AGX51, AGX51E1, AGX51E2 or AGX-A. Due to the presence of DMSO in the samples, the lowest wavelength to be scanned is limited.

colon tumors = assay: Azoxymethane (AOM) colon tumor model; format: in vivo, mouse; conditions: 15 mg/kg i.p. for three weeks
Procedure: Spontaneous colon tumors will be induced by treating 30, 4-week old male A/J mice (Jackson Laboratory) with AOM (10 mg/kg; Sigma Aldrich) once a week by i.p. injection for 6 weeks. Mice will be maintained on AIN-93G purified diet (Research Diets) for the duration of the experiment. After a three-week treatment break mice will be treated i.p. for three weeks with DMSO, AGX51 (15 mg/kg) or a compound of the present technology (e.g., AGX-A; 15 mg/kg). Following the last injection, the mice will be euthanized and colon tumors will be formalin fixed to assess tumor burden. Tumor numbers and size will be determined in whole mounts of the tissues following methylene blue staining. For aid in future comparison with a compound of the present technology, the study was initially performed with DMSO and AGX51 where exemplary data of effects of AGX51 on sporadic tumor is shown FIGS. 35A-35D.

ID1 [2] = biological target: T2, ID1 (Homo sapiens, UniProt P41134); assay: Knockdown of Id1 in TFK1 cell cultures; format: cell-based; design: endogenous in cells; host or cells: TFK1; conditions: TFK1, FIG. 21
T2 sequence (P41134 1-155): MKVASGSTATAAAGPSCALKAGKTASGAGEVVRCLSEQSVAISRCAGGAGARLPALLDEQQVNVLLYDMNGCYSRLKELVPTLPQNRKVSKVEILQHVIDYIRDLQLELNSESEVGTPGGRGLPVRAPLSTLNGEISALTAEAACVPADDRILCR
Description: Following the methods described herein (see, e.g., Examples 12-13), AGX-A and AGX51 were compared for their ability to mediate Id knockdown in cell cultures. FIG. 21 illustrates side-by-side comparative effects of AGX51 and AGX-A for knockdown of Id1 in TFK1 cell cultures, and FIG. 22 illustrates side-by-side comparative effects of AGX51 and AGX-A for knockdown of Id3 in TFK1 cell cultures.

| Compound | relative potency in EMSA (Id1 [1]) | interaction with E47 (CD) (E47) | number of colon tumors (colon tumors; p=0.008) | colon tumor size vs DMSO group (colon tumors; significant for tumors >3 mm (p=0.004)) | Id1 knockdown potency vs AGX51 (ID1 [2]) |
| --- | --- | --- | --- | --- | --- |
| CCC(=O)N(CCC(c1ccc2c(c1)OCO2)c1ccccc1OC)Cc1ccccc1 (racemic) [AGX51, N-(3-(benzo[d][1,3]dioxol-5-yl)-3-(2-methoxyphenyl)propyl)-N-benzylpropionamide] | more potent than B | no evidence of an interaction | significant decrease in the number of colon tumors | smaller than those in the DMSO group |  |
| COc1ccccc1C(CCNCc1ccccc1)c1ccc(OC(C)C)cc1 (centres unmarked) [AGX-A, N-benzyl-3-(4-isopropoxyphenyl)-3-(2-methoxyphenyl)propan-1-anine] |  |  |  |  | superior anti-Id1 and anti-Id3 potency compared to AGX51 |
